Calls of active or inactive are those of the source. The calls are words filed in the database; no cut-off is given here.
Legend:
NCI-H460 [1] = assay: Induction of apoptosis in human NCI-H460 cells assessed as effect on cleavage of PARP at 1 uM measured for 48 hrs by western blot analysis; assay type: functional, cell-based
NCI-H460 [2] = assay: Induction of apoptosis in human NCI-H460 cells assessed as effect on caspase 9 level at 1 uM measured for 48 hrs by western blot analysis; assay type: functional, cell-based
[3] = AUC (0 to t) in BALB/c nude mouse at 10 mg/kg, po by LC-MS/MS analysis; assay type: ADME, organism-based; set-up: dose 10 mg/kg, route po; settings: in vivo
NCI-H522 [4] = assay: Antitumor activity against human NCI-H522 cells xenografted in BALB/c nude mouse assessed as reduction of tumor growth by measuring T/C ratio at 50 mg/kg, iv administered every 4 days for 21 days; assay type: functional; settings: time 4 day
[5] = Oral bioavailability in BALB/c nude mouse at 10 mg/kg by LC-MS/MS analysis; assay type: ADME, organism-based; settings: in vivo
SF-295 = assay: Anticancer activity against human SF-295 cells assessed as cell growth inhibition measured after 48 hrs by SRB assay; assay type: functional
NCI-H460 [6] = assay: Induction of apoptosis in human NCI-H460 cells assessed as effect on caspase 3 level at 1 uM measured for 48 hrs by western blot analysis; assay type: functional, cell-based
NCI-H522 [7] = assay: Induction of apoptosis in human NCI-H522 cells assessed as necrotic cells at 0.05 uM incubated for 48 hrs by Annexin V-FITC/PI staining based flow cytometric analysis (Rvb =0.64 %); assay type: functional
[8] = Cmax in BALB/c nude mouse at 1 mg/kg, iv by LC-MS/MS analysis; assay type: ADME, organism-based; set-up: dose 1 mg/kg, route iv; settings: in vivo
786-0 = assay: Anticancer activity against human 786-0 cells assessed as cell growth inhibition measured after 48 hrs by SRB assay; assay type: functional
NCI-H522 [9] = assay: Induction of apoptosis in human NCI-H522 cells assessed as necrotic cells at 5 uM incubated for 48 hrs by Annexin V-FITC/PI staining based flow cytometric analysis (Rvb =0.64 %); assay type: functional
[10] = Toxicity in BALB/c nude mouse xenografted with human NCI-H522 cells assessed as change in body weight at 12.5 to 50 mg/kg, iv administered every 4 days for 21 days; assay type: organism-based; settings: in vivo, 96 h, dose 12.5-50 mg/kg, time 4 day
[11] = Half life in BALB/c nude mouse at 10 mg/kg, po by LC-MS/MS analysis; assay type: ADME, organism-based; settings: in vivo
[12] = Cmax in BALB/c nude mouse at 10 mg/kg, po by LC-MS/MS analysis; assay type: ADME, organism-based; set-up: dose 10 mg/kg, route po; settings: in vivo
NCI-H522 [13] = assay: Induction of apoptosis in human NCI-H522 cells assessed as necrotic cells at 0.5 uM incubated for 48 hrs by Annexin V-FITC/PI staining based flow cytometric analysis (Rvb =0.64 %); assay type: functional
NCI-H522 [14] = assay: Induction of apoptosis in human NCI-H522 cells assessed as late apoptotic cells at 0.05 uM incubated for 48 hrs by Annexin V-FITC/PI staining based flow cytometric analysis (Rvb =9.14 %); assay type: functional
NCI-H460 [15] = assay: Induction of cell cycle arrest in human NCI-H460 cells assessed as accumulation at S phase at 20 nM incubated for 48 hrs by PI staining based flow cytometric analysis; assay type: functional
[16] = test system: Panel NCI-60 (60 carcinoma cell lines); assay: Anticancer activity against human Panel NCI-60 (60 carcinoma cell lines) line assessed as cell growth inhibition measured after 48 hrs by SRB assay; assay type: functional
NCI-H522 [17] = assay: Induction of mitochondrial membrane potential depolarization in human NCI-H522 cells measured after 48 hrs by JC-1 staining based flow cytometry analysis; assay type: functional, cell-based; settings: dose 0.05-5 µM, DDE = dose-dependent effect
NCI-H522 [18] = assay: Induction of apoptosis in human NCI-H522 cells assessed as late apoptotic cells at 5 uM incubated for 48 hrs by Annexin V-FITC/PI staining based flow cytometric analysis (Rvb =9.14 %); assay type: functional
HCT-116 = assay: Anticancer activity against human HCT-116 cells assessed as cell growth inhibition measured after 48 hrs by SRB assay; assay type: functional
[19] = Inhibition of tubulin polymerization […] assessed as microtubule assembly measured every 1 min for 60 mins by fluorimeter analysis
NCI-H522 [20] = assay: Antitumor activity against human NCI-H522 cells xenografted in iv dosed BALB/c nude mouse assessed as inhibition of tumor growth administered every 4 days for 21 days; assay type: functional, organism-based; settings: dose 12.5-50 mg/kg, time 4.0 day, DDE = dose-dependent effect
NCI-H522 [21] = assay: Induction of apoptosis in human NCI-H522 cells assessed as apoptotic rate at 0.05 to 5 uM incubated for 48 hrs by AnnexinV-FITC/PI staining based flow cytometric analysis; assay type: functional; settings: dose 0.05-5 µM
LOX IMVI = assay: Anticancer activity against human LOX IMVI cells assessed as cell growth inhibition measured after 48 hrs by SRB assay; assay type: functional
NCI-H460 [22] = assay: Inhibition of polyribosome in human NCI-H460 cells assessed as increase in 80S ribosome at 200 nM incubated for 1 hr in presence of cycloheximide; assay type: functional, cell-based
[23] = AUC (0 to t) in BALB/c nude mouse at 1 mg/kg, iv by LC-MS/MS analysis; assay type: ADME, organism-based; set-up: dose 1 mg/kg, route iv; settings: in vivo
NCI-H460 [24] = assay: Downregulation of c-Myc protein expression level in human NCI-H460 cells at 20 nM incubated for 0.5 to 6 hrs by western blot analysis; assay type: functional, cell-based; settings: time 0.5-6 hrs
NCI-H460 [25] = assay: Induction of apoptosis in human NCI-H460 cells assessed as effect on caspase 7 level at 1 uM measured for 48 hrs by western blot analysis; assay type: functional, cell-based
NCI-H522 [26] = assay: Induction of apoptosis in human NCI-H522 cells assessed as early apoptotic cells at 5 uM incubated for 48 hrs by Annexin V-FITC/PI staining based flow cytometric analysis (Rvb =7.01 %); assay type: functional
NCI-H522 [27] = assay: Induction of apoptosis in human NCI-H522 cells assessed as early apoptotic cells at 0.5 uM incubated for 48 hrs by Annexin V-FITC/PI staining based flow cytometric analysis (Rvb =7.01 %); assay type: functional
NCI-H522 [28] = assay: Induction of apoptosis in human NCI-H522 cells assessed as viable cells at 0.05 uM incubated for 48 hrs by Annexin V-FITC/PI staining based flow cytometric analysis (reference value: 82.4%); assay type: functional; settings: read-out: Activity
NCI-H522 [29] = assay: Induction of apoptosis in human NCI-H522 cells assessed as viable cells at 0.5 uM incubated for 48 hrs by Annexin V-FITC/PI staining based flow cytometric analysis (reference value: 82.4%); assay type: functional; settings: read-out: Activity
A549 = assay: Anticancer activity against human A549 cells assessed as cell growth inhibition measured after 48 hrs by SRB assay; assay type: functional
NCI-H522 [30] = assay: Antitumor activity against human NCI-H522 cells xenografted in BALB/c nude mouse assessed as reduction of tumor weight at 50 mg/kg, iv administered every 4 days for 21 days; assay type: functional; set-up: scale not given: the % may be the effect or the level left; settings: time 4 day
NCI-H522 [31] = assay: Induction of apoptosis in human NCI-H522 cells assessed as viable cells at 5 uM incubated for 48 hrs by Annexin V-FITC/PI staining based flow cytometric analysis (reference value: 82.4%); assay type: functional; settings: read-out: Activity
NCI-H522 [32] = assay: Induction of apoptosis in human NCI-H522 cells assessed as late apoptotic cells at 0.5 uM incubated for 48 hrs by Annexin V-FITC/PI staining based flow cytometric analysis (Rvb =9.14 %); assay type: functional
NCI-H522 [33] = assay: Induction of apoptosis in human NCI-H522 cells assessed as early apoptotic cells at 0.05 uM incubated for 48 hrs by Annexin V-FITC/PI staining based flow cytometric analysis (Rvb =7.01 %); assay type: functional

AUC(0-t) [3]: 66.5 ng·h/mL | bioavailability [5]: 1.53% | Cmax [8]: 1540 ng/mL | GI50 (786-0): < 5 nM | half-life [11]: 84 min | Cmax [12]: 42.6 ng/mL | GI50 (HCT-116): < 5 nM | IC50 [19]: 10.1 µM | AUC(0-t) [23]: 439 ng·h/mL | GI50 (A549): < 5 nM
SMILES: CCN(CC)C(=O)C[C@H]1C(=O)Nc2cc(NC(=O)c3cc(OC)c(OC)c(OC)c3Br)c(Oc3cc(C)cc(C)c3)cc2C(=O)N1C
Activity (NCI-H460 [1]): Active | Activity (NCI-H460 [2]): Active | T/C (NCI-H522 [4]): 13.6% | GI50 (SF-295): < 5 nM | Activity (NCI-H460 [6]): Active | Activity (NCI-H522 [7]): 1.25% | Activity (NCI-H522 [9]): 7.64% | Activity [10]: < 10% | Activity (NCI-H522 [13]): 4.6% | Activity (NCI-H522 [14]): 25.2% | Activity (NCI-H460 [15]): Active | GI50 [16]: < 5 nM | Activity (NCI-H522 [17]): Dde | Activity (NCI-H522 [18]): 59% | Activity (NCI-H522 [20]): Dde | Activity (NCI-H522 [21]): 35% | GI50 (LOX IMVI): < 5 nM | Activity (NCI-H460 [22]): Active | Activity (NCI-H460 [24]): Active | Activity (NCI-H460 [25]): Active | Activity (NCI-H522 [26]): 19.8% | Activity (NCI-H522 [27]): 14.5% | viability at 0.05 µM (NCI-H522 [28]): 65.8% | viability at 0.5 µM (NCI-H522 [29]): 28.4% | Activity (NCI-H522 [30]): 88.7% | viability at 5 µM (NCI-H522 [31]): 13.5% | Activity (NCI-H522 [32]): 52.4% | Activity (NCI-H522 [33]): 7.75%

— ChEMBL document CHEMBL5214978, “Identification of 1,4-Benzodiazepine-2,5-dione Derivatives as Potential Protein Synthesis Inhibitors with Highly Potent Anticancer Activity” (J Med Chem, 2022)
